Results reported in PubChem BioAssay (NCI).
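At the GI50, growth is halved. TGI: total growth inhibition.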

Tests used:
Experiment in all cases: DTP human tumour cell line panel, 384-well format
TK-10 renal = system: TK-10 renal
NCI-H226 lung = system: NCI-H226 lung
HOP-62 NSCLC = system: HOP-62 NSCLC
MDA-MB-468 breast = system: MDA-MB-468 breast
NCI-H522 lung = system: NCI-H522 lung
OVCAR-3 ovarian = system: OVCAR-3 ovarian
SF-539 CNS = system: SF-539 CNS
HCC-2998 colon = system: HCC-2998 colon
NCI-H23 lung = system: NCI-H23 lung
OVCAR-8 ovarian = system: OVCAR-8 ovarian
786-0 renal = system: 786-0 renal
HOP-92 NSCLC = system: HOP-92 NSCLC
NCI-H322M lung = system: NCI-H322M lung
PC-3 prostate = system: PC-3 prostate
SK-MEL-2 melanoma = system: SK-MEL-2 melanoma
BT-549 breast = system: BT-549 breast
A549 NSCLC = system: A549 NSCLC
HS 578T breast = system: HS 578T breast
UO-31 renal = system: UO-31 renal
SK-OV-3 ovarian = system: SK-OV-3 ovarian
ACHN renal = system: ACHN renal
NCI/ADR-RES ovarian = system: NCI/ADR-RES ovarian
UACC-62 melanoma = system: UACC-62 melanoma
HCT-116 colon = system: HCT-116 colon
MDA-MB-231 breast = system: MDA-MB-231 breast
MDA-MB-435 melanoma = system: MDA-MB-435 melanoma
U251 glioblastoma = system: U251 glioblastoma
SW-620 colon = system: SW-620 colon
T-47D breast = system: T-47D breast
SK-MEL-5 melanoma = system: SK-MEL-5 melanoma
KM12 colon = system: KM12 colon
RXF 393 renal = system: RXF 393 renal
K-562 leukemia = system: K-562 leukemia
OVCAR-5 ovarian = system: OVCAR-5 ovarian
RPMI-8226 leukemia = system: RPMI-8226 leukemia
SNB-19 CNS = system: SNB-19 CNS
CAKI-1 renal = system: CAKI-1 renal
EKVX NSCLC = system: EKVX NSCLC
COLO 205 colon = system: COLO 205 colon
IGROV1 ovarian = system: IGROV1 ovarian
SF-268 CNS = system: SF-268 CNS
HCT-15 colon = system: HCT-15 colon
SF-295 CNS = system: SF-295 CNS
NCI-H460 NSCLC = system: NCI-H460 NSCLC
SNB-75 CNS = system: SNB-75 CNS
LOX IMVI melanoma = system: LOX IMVI melanoma
SN12C renal = system: SN12C renal
A498 renal = system: A498 renal
UACC-257 melanoma = system: UACC-257 melanoma
HL-60(TB) leukemia = system: HL-60(TB) leukemia
M14 melanoma = system: M14 melanoma
DU-145 prostate = system: DU-145 prostate
OVCAR-4 ovarian = system: OVCAR-4 ovarian
MALME-3M melanoma = system: MALME-3M melanoma
HT29 colon = system: HT29 colon
MCF7 breast = system: MCF7 breast
SK-MEL-28 melanoma = system: SK-MEL-28 melanoma

CC[C@@]1(O)C(=O)OCc2c1cc1n(c2=O)Cc2cc3c(CN(C)C)c(O)ccc3nc2-1
GI50 (TK-10 renal): 296 nM | TGI (TK-10 renal): 3130 nM | GI50 (NCI-H226 lung): 19.9 nM | TGI (NCI-H226 lung): 122 nM | TGI (HOP-62 NSCLC): 17.5 nM | GI50 (MDA-MB-468 breast): 10.2 nM | TGI (MDA-MB-468 breast): < 16.5 nM | GI50 (NCI-H522 lung): 19.8 nM | TGI (NCI-H522 lung): 236 nM | GI50 (OVCAR-3 ovarian): 53.3 nM | TGI (OVCAR-3 ovarian): 282 nM | GI50 (SF-539 CNS): 16.7 nM | TGI (SF-539 CNS): 42.6 nM | GI50 (HCC-2998 colon): 118 nM | TGI (HCC-2998 colon): 311 nM | GI50 (NCI-H23 lung): 18.8 nM | TGI (NCI-H23 lung): 56.5 nM | GI50 (OVCAR-8 ovarian): 17.1 nM | TGI (OVCAR-8 ovarian): 180 nM | GI50 ([…]-0 renal): 18.2 nM | TGI (786-0 renal): 63.1 nM | GI50 (HOP-92 NSCLC): 32.4 nM | TGI (HOP-92 NSCLC): 266 nM | GI50 (NCI-H322M lung): 143 nM | TGI (NCI-H322M lung): 451 nM | GI50 (PC-3 prostate): 385 nM | TGI (PC-3 prostate): > 36600 nM | GI50 (SK-MEL-2 melanoma): 219 nM | TGI (SK-MEL-2 melanoma): 529 nM | GI50 (BT-549 breast): < 15.6 nM | TGI (BT-549 breast): 71.5 nM | GI50 (A549 NSCLC): 50.1 nM | TGI (A549 NSCLC): 1220 nM | GI50 (HS 578T breast): < 39.9 nM | TGI (HS 578T breast): 715 nM | GI50 (UO-31 renal): 41.6 nM | TGI (UO-31 renal): 168 nM | GI50 (SK-OV-3 ovarian): 31.6 nM | TGI (SK-OV-3 ovarian): 129 nM | GI50 (ACHN renal): 20.4 nM | TGI (ACHN renal): 47 nM | GI50 (NCI/ADR-RES ovarian): 82 nM | TGI (NCI/ADR-RES ovarian): 326 nM | GI50 (UACC-62 melanoma): 16 nM | TGI (UACC-62 melanoma): 63.2 nM | TGI (HCT-116 colon): 222 nM | GI50 (MDA-MB-231 breast): 182 nM | TGI (MDA-MB-231 breast): 781 nM | GI50 (MDA-MB-435 melanoma): 181 nM | TGI (MDA-MB-435 melanoma): 619 nM | GI50 (U251 glioblastoma): < 13 nM | TGI (U251 glioblastoma): 58.1 nM | GI50 (SW-620 colon): < 16.6 nM | TGI (SW-620 colon): 637 nM | GI50 (T-47D breast): 21.8 nM | TGI (T-47D breast): 790 nM | GI50 (SK-MEL-5 melanoma): 23.6 nM | TGI (SK-MEL-5 melanoma): 69.1 nM | GI50 (KM12 colon): 117 nM | TGI (KM12 colon): 673 nM | GI50 (RXF 393 renal): 48.3 nM | TGI (RXF 393 renal): 143 nM | GI50 (K-562 leukemia): 15.9 nM | TGI (K-562 leukemia): 253 nM | GI50 (OVCAR-5 ovarian): 147 nM | TGI (OVCAR-5 ovarian): 482 nM | GI50 (RPMI-8226 leukemia): 28.6 nM | TGI (RPMI-8226 leukemia): 80.9 nM | GI50 (SNB-19 CNS): 24.5 nM | TGI (SNB-19 CNS): 228 nM | GI50 (CAKI-1 renal): 22.7 nM | TGI (CAKI-1 renal): 247 nM | GI50 (EKVX NSCLC): 366 nM | TGI (EKVX NSCLC): 1860 nM | TGI (COLO 205 colon): 800 nM | GI50 (IGROV1 ovarian): 66.4 nM | TGI (IGROV1 ovarian): 749 nM | TGI (SF-268 CNS): 26 nM | GI50 (HCT-15 colon): 50.7 nM | TGI (HCT-15 colon): 1130 nM | GI50 (SF-295 CNS): < 13.1 nM | TGI (SF-295 CNS): 26.5 nM | GI50 (NCI-H460 NSCLC): 19.8 nM | TGI (NCI-H460 NSCLC): 100 nM | GI50 (SNB-75 CNS): 25.2 nM | TGI (SNB-75 CNS): 60 nM | GI50 (LOX IMVI melanoma): 11.4 nM | TGI (LOX IMVI melanoma): 142 nM | GI50 (SN12C renal): 22 nM | TGI (SN12C renal): 75.3 nM | GI50 (A498 renal): 40.1 nM | TGI (A498 renal): 255 nM | GI50 (UACC-257 melanoma): 154 nM | TGI (UACC-257 melanoma): 1540 nM | GI50 (HL-60(TB) leukemia): < 11.3 nM | TGI (HL-60(TB) leukemia): 23.9 nM | GI50 (M14 melanoma): 20.6 nM | TGI (M14 melanoma): 64.7 nM | TGI (DU-145 prostate): 37.4 nM | GI50 (OVCAR-4 ovarian): 469 nM | TGI (OVCAR-4 ovarian): 1700 nM | GI50 (MALME-3M melanoma): 130 nM | TGI (MALME-3M melanoma): 996 nM | GI50 (HT29 colon): 49.6 nM | TGI (HT29 colon): 200 nM | GI50 (MCF7 breast): < 15.7 nM | TGI (MCF7 breast): 3480 nM | GI50 (SK-MEL-28 melanoma): 72.1 nM | TGI (SK-MEL-28 melanoma): 1290 nM
